Target: FIXa (Homo sapiens, UniProt P00740)
Assay: FXa generation assay with human FIXa
Format: biochemical
Design: purchased Haematologic Technologies
Settings: FXa generation assay using human FIXa; class symbols
Excerpt: FXa generation was utilized to assess the capability of the compounds of the present disclosure to enhance the catalytic activities of FIXa and/or FVIIa.
To measure the catalytic activity of FIXa, FIXa was mixed with FX and phospholipids in the presence of calcium chloride. Under these conditions FIXa cleaves the zymogen FX into the active form FXa.
The generation of FXa is monitored by the change in absorbance of the reaction at 405 nm due to the presence of a cleavable FXa chromogenic substrate (S-2765; Z-D-Arg-Gly-Arg-pNA; cleavage of p-nitroaniline). […] The kit contains all the FXa generation components, however, FIXa and FX obtained from this kit are from a bovine origin and were replaced with purified human FIXa or human FVIIa and human FX (Haematologic Technologies).
The assay was also modified to enhance the screening throughput. Instead of the sequential addition, all the assay components were mixed and added simultaneously to the purified compound to be assayed. A 125 μl reaction mix of the assay components was prepared in the buffer supplied by the manufacturer (50 mM Tris 7.3, and 1% BSA). […] The reaction mix (125 ul) was then added to 25 ul of compound diluted in water in a Costar-3651 flat bottom 96-well plate. […] The absorbance was monitored over a period of 1 hour at 405 nm using a plate reader (Synergy 2, Biotek).
The 405 nm absorbance data were then analyzed to obtain the slope of the first derivative which reflects the rate of change in absorbance. The first derivative slope data for each compound concentration were plotted against the compound concentration and fitted to a four-parameter equation to obtain the EC50 and Vmax values for each compound tested.

FIXa, sequence (P00740 47-191 limits assumed): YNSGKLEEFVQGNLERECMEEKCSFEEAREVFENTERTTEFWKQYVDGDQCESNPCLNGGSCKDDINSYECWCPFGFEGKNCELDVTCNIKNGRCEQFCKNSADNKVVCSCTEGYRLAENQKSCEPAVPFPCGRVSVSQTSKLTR
FIXa, sequence (P00740 227-461 limits assumed): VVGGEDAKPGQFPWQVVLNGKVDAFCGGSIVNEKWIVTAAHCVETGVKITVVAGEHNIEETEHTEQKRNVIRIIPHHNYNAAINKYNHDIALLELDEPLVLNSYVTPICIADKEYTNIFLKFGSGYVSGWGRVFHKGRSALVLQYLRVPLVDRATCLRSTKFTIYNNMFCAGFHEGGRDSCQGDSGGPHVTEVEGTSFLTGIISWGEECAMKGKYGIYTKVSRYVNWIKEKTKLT

Row | Substance | Vmax | EC50 [nM]
1 | APPGGKRMCLVSGCQLFPWSAS | (+) ((+)<1) | –
2 | AQLRRKLTCLASYCWLFGFFSP | (++) ((++) 1-2) | –
3 | AQTRVARCCQLF | (+) ((+)<1) | –
4 | AVAINKVPCVASYCQLFESKIH | (+) ((+)<1) | –
5 | AWPYHKPTCLASQCWQFLAQGS | (+) ((+)<1) | –
6 | DAGPNKLRCLASYCQLFGGGHA | (+) ((+)<1) | –
7 | DAKVAKLRCLGSQCWLLQYAPG | (++) ((++) 1-2) | –
8 | DSRSAKRKCLASYCWLFGIGQA | (+) ((+)<1) | –
9 | EQTCLASYCWLF | (+) ((+)<1) | –
10 | ERYRLDMTCMASQCWQFPPAAG | (++) ((++) 1-2) | –
11 | FGQPSRLTCLASYCWLFGNLVT | (++) ((++) 1-2) | –
12 | FPIQHKLTCLSSDCWLFPSHSY | (+) ((+)<1) | –
13 | GAQLDKETCLASYCQLFSTVRR | (+) ((+)<1) | –
14 | GASSDKLTCRTRHCSMFQPLSV | (+) ((+)<1) | –
15 | GCSSDKLTARTRHCSMFQPLSV | (+) ((+)<1) | –
16 | GDSGRKLSCLGSYCWLSVQFMA | (++) ((++) 1-2) | –
17 | GEGGGKLSCVAIQCGLFKGLGR | (+) ((+)<1) | –
18 | GFGSRKLTSLASYGWLIQDRLP | (+) ((+)<1) | –
19 | GGALQQLTCPASYCWLFPMEHS | (+) ((+)<1) | –
20 | GIQGSEVACRASFCRLFEQGHV | (+) ((+)<1) | –
21 | GSCRDQLTCLSSDRWQFFRRVS | (+) ((+)<1) | –
22 | GVEDRQLTCLASSCWVFSRHSV | (++) ((++) 1-2) | –

Row | Substance | Vmax | EC50 [nM]
23 | HDSLDQLTCLASVCQLASMGAR | (+) ((+)<1) | –
24 | HGLADRLTCLSSDCWLQPFGTS | (+) ((+)<1) | –
25 | HLGSPKLTCGASQCWLLNHEVS | (+) ((+)<1) | –
26 | HMQWGKLPCLASYCWLFWYGIG | (+++) ((+++)>2) | –
27 | HQQRRKLTCLAGYCWLFVLGPS | (+++) ((+++)>2) | –
28 | KEGFAQLPCLVCQGGLFSPRAI | (+) ((+)<1) | –
29 | KGAYQKLTCLASYCLLFLLTAQ | (++) ((++) 1-2) | –
30 | KGRCLTSHCWLF | (+) ((+)<1) | –
31 | KKTCLASYCWLF | (++) ((++) 1-2) | –
32 | KLKCLASYCWLF | (++++) ((++++)>3) | 500 to 1000
33 | KLKCLSSECQLL | (+) ((+)<1) | –
34 | KLSCQAGQCWVF | (+++) ((+++)>2) | –
35 | KLTCKASYCWLF | (++++) ((++++)>3) | –
36 | KLTCLASKCWLF | (+) ((+)<1) | –
37 | KLTCLASQCWLF | (+++) ((+++)>2) | –
38 | KLTCLASYCFLF | (++++) ((++++)>3) | 500 to 1000
39 | KLTCLASYCLLF | (+++) ((+++)>2) | 500 to 1000
40 | KLTCLASYCQLF | (++++) ((++++)>3) | 500 to 1000
41 | KLTCLASYCQLV | (+++) ((+++)>2) | –
42 | KLTCLASYCWIF | (+++) ((+++)>2) | 500 to 1000
43 | KLTCLASYCWLK | (+) ((+)<1) | –
44 | KLTCLASYCWYF | (+++) ((+++)>2) | –

Row | Substance | Vmax | EC50 [nM]
45 | KLTCLATYCWLF | (++) ((++) 1-2) | –
46 | KLTCLGSYCWLF | (+++) ((+++)>2) | –
47 | KLTCLKSYCWLF | (++) ((++) 1-2) | –
48 | KLTCLSSYCWLF | (+++) ((+++)>2) | –
49 | KLTCLVSYCWLF | (+++) ((+++)>2) | 500 to 1000
50 | KLTCQASYCWLF | (++) ((++) 1-2) | –
51 | KLTCRASYCQLF | (+++) ((+++)>2) | –
52 | KRYVYRQMCLVSACWLLQLGYA | (++) ((++) 1-2) | –
53 | LLHAQKLSCLASYCWVFDAEWD | (+) ((+)<1) | –
54 | LLQIPNLTCLGSYCWLDNGVYA | (+) ((+)<1) | –
55 | LQELTKLTCLARSGWLVCNPGY | (+) ((+)<1) | –
56 | LRTQPKVTGLASCSGLVNCSRD | (+) ((+)<1) | –
57 | LTWREKLACLASYCWLFLWGAP | (++) ((++) 1-2) | –
58 | MAGMLKLTCFASYCGLFPLVSS | (++) ((++) 1-2) | –
59 | MEGTRQPTCLASYCSPFQYVAP | (+) ((+)<1) | –
60 | MLTCIASYCQLG | (+) ((+)<1) | –
61 | NGGMQKPACLASQCWLFANPLP | (++) ((++) 1-2) | –
62 | NLTGRASYGWLP | (+) ((+)<1) | –
63 | NPTCQASYCQLF | (+) ((+)<1) | –
64 | QAKMLKLTCLASYCWLFWVTRS | (+++) ((+++)>2) | –
65 | QDGDGKLTCRASYCRRFLVGVH | (+) ((+)<1) | –
66 | QDGVEKLTCLASYCWRFGDHGA | (+) ((+)<1) | –

Row | Substance | Vmax | EC50 [nM]
67 | QEQPAKLTCRGSYCWLFKRGDQ | (+) ((+)<1) | –
68 | QGQARKLACLASYCWLFPSSAG | (+) ((+)<1) | –
69 | QLPCLASYCGLF | (+) ((+)<1) | –
70 | QLTCLASECGLS | (+) ((+)<1) | –
71 | QLTCLASYCGGV | (+) ((+)<1) | –
72 | QLTCLASYCWLF | (+) ((+)<1) | –
73 | QQRQIKMSCLASYCWLFGSIPW | (++) ((++) 1-2) | 500 to 1000
74 | QQTCQASQCQLF | (+) ((+)<1) | –
75 | RFQTTQLTCLGSASCLFNLSVR | (+) ((+)<1) | –
76 | RGRSAKLRCLASYCWLFFGVIL | (+++) ((+++)>2) | –
77 | RGRSAKLRCLASYCWLFFTVIL | (+++) ((+++)>2) | –
78 | RGRSAKLTCLASYCWLFFGVIL | (+++) ((+++)>2) | –
79 | RGSVHQPTCLGGYCGRLHSSWV | (+) ((+)<1) | –
80 | RHSNHNLTCQASYCWLLPAGLQ | (+) ((+)<1) | –
81 | RLTCLASYCWLF | (+++) ((+++)>2) | –
82 | RPGGGKVTCQASYCWPFLARAG | (+) ((+)<1) | –
83 | RQLWNKLTCLASYCALIGLSGT | (++) ((++) 1-2) | –
84 | RRCPGKLQALASYCWLFWTGIA | (+++) ((+++)>2) | –
85 | RSFTSELTCLASSCRRFHHVPP | (+) ((+)<1) | –
86 | RSQGRKLTCLASYCWLFLVVHR | (++) ((++) 1-2) | –
87 | RSTVSQMRCLASYCWLFPALVS | (++) ((++) 1-2) | –
88 | SCVKHELKCLSSDSRLFSAVQR | (+) ((+)<1) | –

Row | Substance | Vmax | EC50 [nM]
89 | SGFGMKLTCLASYCGLFQGEIG | (+) ((+)<1) | –
90 | SGGSGKLTCLASYCWPFGSQVR | (+) ((+)<1) | –
91 | SGRGGKLTCQASFCQLFGNGLS | (++) ((++) 1-2) | –
92 | SISGQQLTCRASHCWLNLPWHS | (+) ((+)<1) | –
93 | SKWEHQRGCLANNCWLFTLAPG | (+) ((+)<1) | –
94 | SLADTQLTWLARQYWLSVSEGS | (+) ((+)<1) | –
95 | SRQSDKPTCLAISCSLLTSNVR | (+) ((+)<1) | –
96 | SYGRTKLTCLASSCWLFGQVHG | (+) ((+)<1) | –
97 | TLDSKNLQCLGSSCWLFSSGLS | (+) ((+)<1) | –
98 | TLLYQNRTCLASYCWLFDKRSV | (+) ((+)<1) | –
99 | TLTCRASYCQLF | (+) ((+)<1) | –
100 | VAHYGKVTCLASYCQPLPSVGA | (+) ((+)<1) | –
101 | VARASKVECLASYCQLFVGGEV | (+) ((+)<1) | –
102 | VDKGHQLRCQAGYCWLLGYNRE | (+) ((+)<1) | –
103 | VGEHRKISCVASNCQLLRSGLA | (+) ((+)<1) | –
104 | VQRSTQLTCLYGGCRLFGWNYH | (+) ((+)<1) | –
105 | VSGTGKLTCLASYCWLFQLGSF | (++) ((++) 1-2) | –
106 | VSGTGRLTCVASYCWMFQLGIF | (++) ((++) 1-2) | –

Same assay, conditions: FXa generation assay using human FIXa; numeric bounds

Row | Substance | Vmax
107 | EGRRDKLTCLASYCWLVGHGQH | >0.3
108 | GASGRRRTCVASYCLLFQSGLP | >0.1
109 | HYARVQLRCLDGYCWLLTKSRM | >2.5
110 | KKTCVASFCQMI | >4
111 | LRQRLAKTCVASYCWLFSLVAS | >1.5
112 | RCAQSRLPWLVSYCWLFSPYGM | >1.5
113 | RYQRARLTCLASYCGLLFSMSA | >0.5

Same assay, conditions: FXa generation assay, 10 nM hFIXa, 100 nM hFX; class symbols

Row | Substance | Vmax
114 | PRIrTVGPGSrSASGKSTCLASYCWLFWTGIA [Compound 24] | (++++) ((++++)>3)

— US9486507B2, “Pro-coagulant compounds and methods of use thereof” (priority 2011, dated 2016)
